Patent publication US20100168099A1, “1H-QUINOLIN-4-ONE COMPOUNDS, WITH AFFINITY FOR THE GABA RECEPTOR, PROCESSES, USES AND COMPOSITIONS” (FERRER INTERNACIONAL, S.A., priority 2006, published 2010)

Legend:
α1-GABAA receptor = test: Ligand-binding assay, radiolabeled flumazenil competition, cerebellum membranes; set-up: species or system rat; conditions: for Affinity for the α1-subunit of the GABAA receptor, % inhibition: rat cerebellum membranes, radiolabeled flumazenil 1 nM; for affinity for α1-subunit of GABAA receptor (in words): compared with zolpidem where stated; for α1-/α2-selectivity (in words): compared with zolpidem
Description: (§1) a) Ligand-binding Assays. Determination of the Affinity of Test Compounds for α1- and α2-GABAA, Receptor
(§2) Male Sprague-Dawley rats weighing 200-250 g at the time of experiment were used. After decapitation of the animal, the cerebellum (tissue that mostly contains α1-GABAA receptor) and spinal cord (tissue that mostly contains α2-GABAA receptor) were removed. The membranes were prepared according to the method by J. Lameh et al. (Prog. Neuro-Psychopharmacol. Biol. Psychiatry, 24, 979-991, 2000) and H. Noguchi et al. (Eur J Pharm, 434, 21-28, 2002) with slight modifications. Once the tissues weighed, they were suspended in 50 mM Tris.HCl (pH 7.4), 1:40 (v/v), or sucrose 0.32 M in the case of spinal cord, homogenized and then centrifuged at 20,000 g for 10 min at 7° C. The resulting pellet was resuspended under the same conditions and centrifuged again. The pellet was finally resuspended on a minimum volume and kept at −80° C. overnight. On the next day, the process was repeated until the final pellet was resuspended at a ratio of 1:10 (v/v) in the case of cerebellum and at a ratio of 1:5 (v/v) in the case of spinal cord.
(§3) Affinity was determined by competitive tests using radiolabeled flumazenil as ligand. The tests were performed according to the methods described by S. Arbilla et al. (Eur. J. Pharmacol., 130, 257-263, 1986); and Y. Wu et al. (Eur. J. Pharmacol., 278, 125-132, 1995) using 96-well microtiter plates. The membranes containing the study receptors, flumazenil (radiolabeling at a final concentration of 1 nM) and ascending concentrations of test compounds (in a total volume of 230 μL in 50 mM [pH 7.4] Tris.HCl buffer) were incubated. Simultaneously, the membranes were only incubated with the radiolabeled flumazenil (total binding, 100%) and in the presence of an elevated concentration of unradiolabeled flumazenil (non-specific binding, % estimation of radiolabeled ligand). The reactions started on adding the radiolabeled ligand followed by incubation for 60 minutes at 4° C. At the end of the incubation period, 200 μL of reaction were transferred to a multiscreen plate (Millipore) and filtered using a vacuum manifold and then washed three times with cold test buffer. The multiscreen plates were equipped with a GF/B filter that retained the membranes containing the receptors and the radiolabeled ligand which had been bound to the receptors. After washing, the plates were left till dry. Once dried, scintillation liquid was added and left under stirring overnight. The next day the plates were counted using a Perkin-Elmer Microbeta scintillation counter.
(§4) For analysis of the results the percentage of specific binding for every concentration of test compound was calculated as follows:
(§5) % specific binding=(X−N/T−N)×100
(§6) where, X: amount of bound ligand for every concentration of compound. T: total binding, maximum amount bound to the radiolabeled ligand. N: non-specific binding, amount of radiolabeled ligand bound in a non-specific way irrespective of the receptor used.
(§7) Every concentrations of compound were tested in triplicate and their mean values were used to determine the experimental values of % specific binding versus the concentration of compound. Affinity data are expressed as % inhibition at 10^−5M and 10^−7M concentrations.

α2-GABAA receptor = test: Ligand-binding assay, radiolabeled flumazenil competition, spinal cord membranes; set-up: species or system rat; conditions: for Affinity for the α2-subunit of the GABAA receptor, % inhibition: rat spinal cord membranes, radiolabeled flumazenil 1 nM
Description: as §1, §2, §3, §4, §5, §6, §7

[1] = test system: spontaneous motor activity of male CD1 mice; test: In vivo predictive sedation-hypnosis test (traveled distance); conditions: Mus musculus, ip, 0.5 h, 98 μmol/kg, single intraperitoneal dose, 30 minutes after dosing (first 5 min discarded), versus control
Description: b) In Vivo Determination of Predictive Sedative-Hypnotic Action
The in vivo effects of these compounds were assessed by a predictive sedation-hypnosis test in mice (D. J. Sanger et al., Eur. J. Pharmacol., 313, 35-42, 1996; and G. Griebel et al., Psychopharmacology, 146, 205-213, 1999).
Groups of 5-8 male CD1 mice, weighing 22-26 g at the time of test, were used. The test compounds were administered in single equimolecular intraperitoneal doses, suspended in 0.25% agar with one drop of Tween in a volume of 10 mL/kg. Control animals received the vehicle alone. Using a Smart System (Panlab, S. L., Spain) the traveled distance in cm was recorded for each mouse at 5 min intervals during a period of 30 minutes after dosing. The inhibition percentage traveled distance of treated animals versus control animals (the first 5 min were discarded) was calculated.

Row | Compound | Affinity for the α1-subunit of the GABAA receptor, % inhibition (α1-GABAA receptor; 10^−5M) | Affinity for the α1-subunit of the GABAA receptor, % inhibition (α1-GABAA receptor; 10^−7M) | affinity for α1-subunit of GABAA receptor (in words) (α1-GABAA receptor) | Affinity for the α2-subunit of the GABAA receptor, % inhibition (α2-GABAA receptor; 10^−5M) | Affinity for the α2-subunit of the GABAA receptor, % inhibition (α2-GABAA receptor; 10^−7M) | inhibition in vivo at 98 µmol/kg [1] | α1-/α2-selectivity (in words) (α1-GABAA receptor) | affinity for the α2-subunit of GABAA receptor (in words) (α2-GABAA receptor; compared with zolpidem where stated)
1 | Cc1cccc2c1c(=O)cc(-c1ccccc1)n2CC(=O)N1CCOCC1 [Example 1, 5-Methyl-1-(2-morpholin-4-yl-2-oxo-ethyl)-2-phenyl-1H-quinolin-4-one] | 99.5% | 57.9% | higher affinity |  |  |  |  | 
2 | Cc1cccc2c1c(=O)cc(-c1ccccc1)n2CC(=O)N1CCCC1 [Example 11, 5-Methyl-1-(2-oxo-2-pyrrolidin-1-yl-ethyl)-2-phenyl-1H-quinolin-4-one] | 99.9% | 52.6% | higher affinity |  |  |  |  | 
3 | CCCN(CCC)C(=O)Cn1cc(-c2ccccc2)c(=O)c2ccc(C)cc21 [Example 14, 2-(7-Methyl-4-oxo-3-phenyl-4H-quinolin-1-yl)-N,N-dipropyl-acetamide] | 98.4% | 36.7% | higher affinity | 77.3% | 40.6% | 96.2% |  | 
4 | Cc1ccc2c(=O)c(-c3ccccc3)cn(CC(=O)N3CCCCC3)c2c1 [Example 15, 7-Methyl-1-(2-oxo-2-piperidin-1-yl-ethyl)-3-phenyl-1H-quinolin-4-one] | 87.3% | 0.0% |  | 13.3% | 0.0% | 84.7% | higher α1-/α2-selectivity than the most selective therapeutically used compound zolpidem | 
5 | CCN(CC)C(=O)Cn1cc(-c2ccccc2)c(=O)c2ccc(C)cc21 [Example 17, N,N-Diethyl-2-(7-methyl-4-oxo-3-phenyl-4H-quinolin-1-yl)-acetamide] | 91.4% | 0.7% |  | 70.1% | 0.0% | 81.5% |  | 
6 | Cc1ccc2c(=O)c(-c3ccccc3)cn(CC(=O)N3CCCC3)c2c1 [Example 18, 7-Methyl-1-(2-oxo-2-pyrrolidin-1-yl-ethyl)-3-phenyl-1H-quinolin-4-one] | 86.2% | 7.5% |  | 66.3% | 0.0% | 84.5% | higher α1-/α2-selectivity than the most selective therapeutically used compound zolpidem | 
7 | Cc1ccc2c(=O)c(-c3ccccc3)cn(CC(=O)c3cccs3)c2c1 [Example 27, 7-Methyl-1-(2-oxo-2-thiophen-2-yl-ethyl)-3-phenyl-1H-quinolin-4-one] | 97.7% | 14.0% |  | 89.9% | 8.4% | 70% |  | higher affinity than prior art compound zolpidem
8 | Cc1ccc2c(=O)c(-c3ccccc3)cn(CC(=O)c3ccccn3)c2c1 [Example 28, 7-Methyl-1-(2-oxo-2-pyridin-2-yl-ethyl)-3-phenyl-1H-quinolin-4-one] | 97.9% | 22.5% |  | 88.0% | 0.0% | 84.4% |  | 
9 | Cc1ccc2c(=O)c(-c3ccccc3)cn(CC(=O)N3CC(C)OC(C)C3)c2c1 (centres unmarked) [Example 32, 1-[2-(2,6-Dimethyl-morpholin-4-yl)-2-oxo-ethyl]-7-methyl-3-phenyl-1H-quinolin-4-one] | 86.2% | 18.4% |  | 55.4% | 0.0% | 90% | higher α1-/α2-selectivity than the most selective therapeutically used compound zolpidem | 
10 | Cc1ccc2c(=O)c(-c3ccccc3)cn(CC(=O)c3oc(C)nc3C)c2c1 [Example 33, 1-[2-(2,4-Dimethyl-oxazol-5-yl)-2-oxo-ethyl]-7-methyl-3-phenyl-1H-quinolin-4-one] | 97.0% | 33.9% |  |  |  | 91.7% |  | 
11 | CCCN(CCC)C(=O)Cn1cc(-c2ccc(OC)cc2)c(=O)c2ccc(C)cc21 [Example 36, 2-[3-(4-Methoxy-phenyl)-7-methyl-4-oxo-4H-quinolin-1-yl]-N,N-dipropyl-acetamide] | 95.9% | 20.3% |  |  |  | 92.1% |  | 
12 | CCCN(CC1CC1)C(=O)Cn1cc(-c2ccccc2)c(=O)c2ccc(C)cc21 [Example 39, N-Cyclopropylmethyl-2-(7-methyl-4-oxo-3-phenyl-4H-quinolin-1-yl)-N-propyl-acetamide] | 98.8% | 56.3% | higher affinity | 93.4% | 28.5% | 92.5% |  | 
13 | Cc1ccc2c(=O)c(-c3ccccc3)cn(CC(=O)N3C(C)C=CC3C)c2c1 (centres unmarked) [Example 42, 1-[2-(2,5-Dimethyl-2,5-dihydro-pyrrol-1-yl)-2-oxo-ethyl]-7-methyl-3-phenyl-1H-quinolin-4-one] | 97.0% | 25.6% |  | 74.1% | 0.0% | 92.2% |  | 
14 | CCCN(CCC)C(=O)Cn1cc(-c2ccccc2)c(=O)c2ccc(Br)cc21 [Example 44, 2-(7-Bromo-4-oxo-3-phenyl-4H-quinolin-1-yl)-N,N-dipropyl-acetamide] | 99.8% | 61.9% | higher affinity |  |  | 95.2% |  | 
15 | C=CCN(CC=C)C(=O)Cn1cc(-c2ccccc2)c(=O)c2ccc(Br)cc21 [Example 129, N,N-Diallyl-2-(7-bromo-4-oxo-3-phenyl-4H-quinolin-1-yl)-acetamide] | 99.7% | 85.2% | higher affinity |  |  | 93.5% |  | 
